Measured values taken from PubChem BioAssay AID248 (DTP/NCI, 2004).
Where “and” joins values, the source holds several entries; their conditions need not be identical. Equal entries are not always repeated. Toxic doses and inconclusive results are not listed.

System: L1210 leukemia ip in BDF1 mice, survival T/C
Assay: NCI In Vivo Anticancer Drug Screen. Data for tumor model L1210 Leukemia (intraperitoneal) in B6D2F1 (BDF1) mice
Settings: endpoint: mean survival time, higher = longer survival
Outline: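 Value reflects the ratio of survival in compound-treated mice to survival in vehicle-treated controls, with both groups carrying the same transplanted tumor.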

In the case of `O=NN(CCCl)C(=O)NC1CCCCC1`, the T/C (dose: 0.06 mg/kg/injection, schedule: Q03HX024 (ip), vehicle: saline) is reported as 101 % of control, the T/C (dose: 0.06 mg/kg/injection, schedule: Q03HX024 (oral), vehicle: saline) is reported as 98 % of control and the T/C (dose: 0.06 mg/kg/injection, schedule: Q03HX040 (oral), vehicle: saline) is reported as 115 % of control. For the same molecule, the T/C (dose: 0.13 mg/kg/injection, schedule: Q03HX024 (oral), vehicle: saline) was 108 % of control, the T/C (dose: 0.13 mg/kg/injection, schedule: Q03HX040 (oral), vehicle: saline) was 153 % of control and the T/C (dose: 0.16 mg/kg/injection, schedule: Q#B X003 (ip), vehicle: carboxymethylcellulose (CMC)) was 103 % of control. The T/C (dose: 0.33 mg/kg/injection, schedule: Q#B X003 (ip), vehicle: carboxymethylcellulose (CMC)) was 95 % of control, the T/C (dose: 0.39 mg/kg/injection, schedule: Q03HX040 (ip), vehicle: carboxymethylcellulose (CMC)) was 100 % of control and the T/C (dose: 0.5 mg/kg/injection, schedule: Q01DX005 (ip), vehicle: saline) was 101 % of control. The T/C (dose: 0.66 mg/kg/injection, schedule: Q#B X003 (ip), vehicle: carboxymethylcellulose (CMC)) was 97 % of control, the T/C (dose: 0.78 mg/kg/injection, schedule: Q03HX024 (ip), vehicle: carboxymethylcellulose (CMC)) was 106 % of control and the T/C (dose: 1.0 mg/kg/injection, schedule: Q01DX001 (ip), vehicle: saline) was 104 % of control. The T/C (dose: 1.0 mg/kg/injection, schedule: Q01DX001 (oral), vehicle: saline) was 100 % of control, the T/C (dose: 1.0 mg/kg/injection, schedule: Q01DX005 (ip), vehicle: saline) was 104 % of control and the T/C (dose: 1.0 mg/kg/injection, schedule: Q03HX040 (ip), vehicle: saline) was 100 % of control. For the same molecule, the T/C (dose: 1.0 mg/kg/injection, schedule: Q## X001 (ip), vehicle: carboxymethylcellulose (CMC)) was 106 % of control, the T/C (dose: 1.33 mg/kg/injection, schedule: Q#B X003 (ip), vehicle: carboxymethylcellulose (CMC)) was 110 % of control and the T/C (dose: 1.56 mg/kg/injection, schedule: Q01DX009 (ip), vehicle: carboxymethylcellulose (CMC)) was 105 % of control. For the same molecule, the T/C (dose: 1.56 mg/kg/injection, schedule: Q03HX024 (ip), vehicle: carboxymethylcellulose (CMC)) was 120 % of control, the T/C (dose: 1.56 mg/kg/injection, schedule: Q03HX040 (ip), vehicle: carboxymethylcellulose (CMC)) was 119 % of control and the T/C (dose: 2.0 mg/kg/injection, schedule: Q01DX Z (ip), vehicle: carboxymethylcellulose (CMC)) was 124 % of control. For the same molecule, the T/C (dose: 2.0 mg/kg/injection, schedule: Q04DX004 (ip), vehicle: Klucel (hydroxypropylcellulose) (HPC)) was 94 % of control, the T/C (dose: 2.66 mg/kg/injection, schedule: Q#B X003 (ip), vehicle: carboxymethylcellulose (CMC)) was 121 % of control and the T/C (dose: 2.8 mg/kg/injection, schedule: Q01DX015 (ip), vehicle: carboxymethylcellulose (CMC)) was 112 % of control. For the same molecule, the T/C (dose: 3.12 mg/kg/injection, schedule: Q01DX005 (ip), vehicle: carboxymethylcellulose (CMC)) was 113 % of control, the T/C (dose: 3.12 mg/kg/injection, schedule: Q01DX Z (ip), vehicle: carboxymethylcellulose (CMC)) was 172 % of control and the T/C (dose: 4.0 mg/kg/injection, schedule: Q01DX009 (oral), vehicle: saline) was 112 % of control. For the same molecule, the T/C (dose: 4.0 mg/kg/injection, schedule: Q03HX003 (oral), vehicle: saline) was 111 % of control, the T/C (dose: 4.2 mg/kg/injection, schedule: Q## X015 (ip), vehicle: carboxymethylcellulose (CMC)) was 113 % of control and the T/C (dose: 4.4 mg/kg/injection, schedule: Q04DX004 (ip), vehicle: Klucel (hydroxypropylcellulose) (HPC)) was 113 % of control. For the same molecule, the T/C (dose: 5.0 mg/kg/injection, schedule: Q## X032 (ip), vehicle: carboxymethylcellulose (CMC)) was 106 % of control and 110 % of control, the T/C (dose: 6.0 mg/kg/injection, schedule: Q02DX005 (ip), vehicle: carboxymethylcellulose (CMC)) was 154 % of control and the T/C (dose: 6.0 mg/kg/injection, schedule: Q02DX006 (ip), vehicle: carboxymethylcellulose (CMC)) was 158 % of control. The T/C (dose: 6.0 mg/kg/injection, schedule: Q02DX007 (ip), vehicle: carboxymethylcellulose (CMC)) was 163 % of control, the T/C (dose: 6.0 mg/kg/injection, schedule: Q## X008 (ip), vehicle: carboxymethylcellulose (CMC)) was 108 % of control and the T/C (dose: 6.25 mg/kg/injection, schedule: Q01DX001 (ip), vehicle: Klucel (hydroxypropylcellulose) (HPC)) was 116 % of control. For the same molecule, the T/C (dose: 6.25 mg/kg/injection, schedule: Q01DX001 (ip), vehicle: carboxymethylcellulose (CMC)) was 109 % of control, the T/C (dose: 6.25 mg/kg/injection, schedule: Q01DX001 (oral), vehicle: carboxymethylcellulose (CMC)) was 122 % of control and the T/C (dose: 6.25 mg/kg/injection, schedule: Q01DX005 (ip), vehicle: carboxymethylcellulose (CMC)) was 157 % of control. For the same molecule, the T/C (dose: 6.25 mg/kg/injection, schedule: Q07DX Z (ip), vehicle: carboxymethylcellulose (CMC)) was 112 % of control, the T/C (dose: 6.7 mg/kg/injection, schedule: Q04DX004 (ip), vehicle: Klucel (hydroxypropylcellulose) (HPC)) was 159 % of control and the T/C (dose: 7.2 mg/kg/injection, schedule: Q## X032 (ip), vehicle: carboxymethylcellulose (CMC)) was 110 % of control. The T/C (dose: 7.5 mg/kg/injection, schedule: Q01DX001 (iv), vehicle: Klucel (hydroxypropylcellulose) (HPC)) was 114 % of control, the T/C (dose: 8.0 mg/kg/injection, schedule: Q03HX003 (oral), vehicle: saline) was 120 % of control and the T/C (dose: 8.0 mg/kg/injection, schedule: Q## X032 (ip), vehicle: carboxymethylcellulose (CMC)) was 113 % of control.
